Results published in ChEMBL document CHEMBL1131787, “Effects of ortho-substituent groups of sulochrin on inhibitory activity to eosinophil degranulation” (Bioorg Med Chem Lett, 1999).
pIC50: −log10 of the molar value.

Experiment: Inhibitory activity against eosinophil degranulation
Format: functional

Compound	pIC50
CCCOC(=O)c1cc(O)cc(OC)c1C(=O)c1c(O)cc(C)cc1O	7.00
COC(=O)c1cc(O)cc(O)c1C(=O)c1c(OC)cc(C)cc1OC	< 5.00
CCCCCCOC(=O)c1cc(O)cc(OC)c1C(=O)c1c(O)cc(C)cc1O	6.52
COC(=O)c1cc(O)cc(OC)c1C(=O)c1c(OCCO)cc(C)cc1OCCO	< 5.00
COc1cc(O)cc(C(=O)O)c1C(=O)c1c(O)cc(C)cc1O	< 5.00

Next, values leading:

pIC50	Compound
< 5.00	COc1cc(O)ccc1C(=O)c1c(O)cc(C)cc1O
7.40	CCCCOC(=O)c1cc(O)cc(OC)c1C(=O)c1c(O)cc(C)cc1O
6.40	COC(=O)c1cc(O)cc(O)c1C(=O)c1c(O)cc(C)cc1OC
7.00	CCOC(=O)c1cc(O)cc(OC)c1C(=O)c1c(O)cc(C)cc1O
7.52	CCC(C)OC(=O)c1cc(O)cc(OC)c1C(=O)c1c(O)cc(C)cc1O (stereo not drawn)
< 5.00	COC(=O)c1cc(O)cc(O)c1C(=O)c1c(O)cc(C)cc1O
6.52	COC(=O)c1cc(O)cc(OC)c1C(=O)c1c(O)cc(C)cc1OC
7.00	COC(=O)c1cc(O)cc(OC)c1C(=O)c1c(O)cc(C)cc1O [SULOCHRIN]
